Literature values, collected in EP3125915B1, “PROCESS FOR PREPARING A POWDERED MIXTURE OF BORNEOL AND PLANT PROTEINS TO BE USED AS DIETARY OR FOOD SUPPLEMENT, AND RELATED DIETARY OR FOOD SUPPLEMENT” (priority 2014, dated 2015).
Where two headings read alike, the source gives them in different places.

Experiments:
[1] = with borneol
[2] = with borneol; remark: listed apart in the source
[3] = not given; remark: listed apart in the source
[4] = with borneol; remark: listed apart in the source
[5] = not given; remark: listed apart in the source
[6] = with borneol; remark: listed apart in the source

For `OCc1ccc(O[C@@H]2O[C@H](CO)[C@@H](O)[C@H](O)[C@H]2O)cc1` [gastrodin], the “peak time of gastrodin in the plasma” value (administration of gastrodin alone) is given as 30 min, the “peak time of gastrodin in the plasma” value (gastrodin co-administrated with borneol) is given as 5 to 15 min and the “bioavailability of gastrodigenin in the brain was increased by” value (gastrodin co-administrated with borneol, compared with gastrodin alone) is given as 33.6-108.8%.

For `NC(=O)N1c2ccccc2C=Cc2ccccc21` [carbamazepine], the bioavailability of carbamazepine [1] is given as “significantly improve”.

For `COC(=O)C1=CO[C@@H](O[C@@H]2O[C@H](CO)[C@@H](O)[C@H](O)[C@H]2O)[C@@H]2C(CO)=CC[C@H]12` [geniposide], the permeability of geniposide ([2]; cortex and striatum regions) is given as “no change”, the permeability of geniposide ([2]; hippocampus and hypothalamus regions) is given as “increase” and the “brain delivery of geniposide” value ([3]; borneol high dose increasing from 2.0 g/kg to 4.0 g/kg) is given as “decreased”. For the same compound, the “delivery of geniposide in the rat brain” value ([3]; borneol low dose range of 0.05-2.0 g/kg) was “increases”.

For `O=c1c(O)c(-c2ccc(O)c(O)c2)oc2cc(O)cc(O)c12` [quercetin], the “absorption of quercetin in mice brain tissue” value [4] is given as “improves”.

For `Cc1nc(C)c(C)nc1C.O=P(O)(O)O` [TMPP, tetramethylpyrazine phosphate], the “oral bioavailability of TMPP in brain tissue, times increased than that without borneol” value ([5]; oral borneol 15 mg kg^-1) is given as 1.12 times, the “oral bioavailability of TMPP in mice plasma, times increased than that without borneol” value ([5]; oral borneol 15 mg kg^-1) is given as 1.52 times and the “oral bioavailability of TMPP in brain tissue, times increased than that without borneol” value ([5]; oral borneol 30 mg kg^-1) is given as 1.62 times. For the same compound, the “oral bioavailability of TMPP in mice plasma, times increased than that without borneol” value ([5]; oral borneol 30 mg kg^-1) was 2.21 times, the “oral bioavailability of TMPP in brain tissue, times increased than that without borneol” value ([5]; oral borneol 90 mg kg^-1) was 1.93 times and the “oral bioavailability of TMPP in mice plasma, times increased than that without borneol” value ([5]; oral borneol 90 mg kg^-1) was 2.95 times.

In the case of `Cc1ncc(CNC(=O)N(CCCl)N=O)c(N)n1` [nimustine], the “bioavailability of nimustine in the CSF” value [6] is listed as “increase”.
